Results: PubChem BioAssay AID1963847 (Molecular Pharmacology Branch, DTP, NCI, 2024)

Tested on: 415267-285-R-J2-PDC complex spheroid viability
Test: Anticancer human tumor 415267-285-R-J2-PDC patient-derived breast carcinoma cell line growth inhibition [POLQ]
Conditions: for IC50: curve of first compound; for viability, T/C: stronger effect = lower value
In short: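 Complex spheroid viability model combining PDC tumour cells with endothelial (HUVEC) and MSC stromal cells. Novobiocin, ART-558 or RP6685 were tested singly and in combination with standard and investigational anticancer drugs. Each was titrated in half-log steps from near clinical Cmax, or from 10 microM where Cmax was unknown.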

[1] = second compound 0.0316 µM, first compound 0.0316 µM
[2] = second compound 0.0316 µM, first compound 0.1 µM
[3] = second compound 0.0316 µM, first compound 0.316 µM
[4] = second compound 0.0316 µM, first compound 1 µM
[5] = second compound 0.0316 µM, first compound 3.16 µM
[6] = second compound 0.0316 µM, first compound 10 µM
[7] = second compound 0.1 µM, first compound 0.0316 µM
[8] = second compound 0.1 µM, first compound 0.1 µM
[9] = second compound 0.1 µM, first compound 0.316 µM
[10] = second compound 0.1 µM, first compound 1 µM
[11] = second compound 0.1 µM, first compound 3.16 µM
[12] = second compound 0.1 µM, first compound 10 µM
[13] = second compound 0.316 µM, first compound 0.0316 µM
[14] = second compound 0.316 µM, first compound 0.1 µM
[15] = second compound 0.316 µM, first compound 0.316 µM
[16] = second compound 0.316 µM, first compound 1 µM
[17] = second compound 0.316 µM, first compound 3.16 µM
[18] = second compound 0.316 µM, first compound 10 µM
[19] = second compound 1 µM, first compound 0.0316 µM
[20] = second compound 1 µM, first compound 0.1 µM
[21] = second compound 1 µM, first compound 0.316 µM
[22] = second compound 1 µM, first compound 1 µM
[23] = second compound 1 µM, first compound 3.16 µM
[24] = second compound 1 µM, first compound 10 µM
[25] = second compound 3.16 µM, first compound 0.0316 µM
[26] = second compound 3.16 µM, first compound 0.1 µM
[27] = second compound 3.16 µM, first compound 0.316 µM
[28] = second compound 3.16 µM, first compound 1 µM
[29] = second compound 3.16 µM, first compound 3.16 µM
[30] = second compound 3.16 µM, first compound 10 µM
[31] = second compound 10 µM, first compound 0.0316 µM
[32] = second compound 10 µM, first compound 0.1 µM
[33] = second compound 10 µM, first compound 0.316 µM
[34] = second compound 10 µM, first compound 1 µM
[35] = second compound 10 µM, first compound 3.16 µM
[36] = second compound 10 µM, first compound 10 µM
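Note: spheroids exposed to compounds for one week before readout.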
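Throughout, for viability, T/C: luminescence used as stand-in measure of viable cells; 100% = DMSO vehicle control viability.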

Compound: C=CC(=O)N1CCN(c2nc(=O)n(-c3c(C)ccnc3C(C)C)c3nc(-c4c(O)cccc4F)c(F)cc23)C(C)C1 (centres undefined) + Nc1ccc(C#CCN(C(=O)Cc2ncc(C(F)(F)F)cc2C(F)(F)F)c2ccc(F)cc2)nn1
- IC50 (second compound 0.0316 µM): > 10 µM
- IC50 (second compound 0.1 µM): > 10 µM
- IC50 (second compound 0.316 µM): > 10 µM
- IC50 (second compound 1 µM): > 10 µM
- IC50 (second compound 3.16 µM): > 10 µM
- IC50 (second compound 10 µM): > 10 µM
- viability, T/C [1]: 99.7%
- viability, T/C [2]: 110%
- viability, T/C [3]: 121%
- viability, T/C [4]: 114%
- viability, T/C [5]: 104%
- viability, T/C [6]: 99.6%
- viability, T/C [7]: 98.5%
- viability, T/C [8]: 103%
- viability, T/C [9]: 94.7%
- viability, T/C [10]: 100%
- viability, T/C [11]: 103%
- viability, T/C [12]: 105%
- viability, T/C [13]: 97.5%
- viability, T/C [14]: 114%
- viability, T/C [15]: 91.8%
- viability, T/C [16]: 93%
- viability, T/C [17]: 98.2%
- viability, T/C [18]: 92.5%
- viability, T/C [19]: 111%
- viability, T/C [20]: 91.7%
- viability, T/C [21]: 113%
- viability, T/C [22]: 106%
- viability, T/C [23]: 96%
- viability, T/C [24]: 105%
- viability, T/C [25]: 99.1%
- viability, T/C [26]: 106%
- viability, T/C [27]: 107%
- viability, T/C [28]: 102%
- viability, T/C [29]: 99.1%
- viability, T/C [30]: 104%
- viability, T/C [31]: 94.5%
- viability, T/C [32]: 112%
- viability, T/C [33]: 106%
- viability, T/C [34]: 107%
- viability, T/C [35]: 104%
- viability, T/C [36]: 102%

Compound: CCc1cc2c(N3CCc4c(cc(Cn5ccnc5)cc4-c4cn(C)nc4C(F)(F)F)C3=O)cc(C)nc2c(OC)n1 + Nc1ccc(C#CCN(C(=O)Cc2ncc(C(F)(F)F)cc2C(F)(F)F)c2ccc(F)cc2)nn1
- IC50 (second compound 0.0316 µM): > 10 µM
- IC50 (second compound 0.1 µM): > 10 µM
- IC50 (second compound 0.316 µM): > 10 µM
- IC50 (second compound 1 µM): > 10 µM
- IC50 (second compound 3.16 µM): > 10 µM
- IC50 (second compound 10 µM): > 10 µM
- viability, T/C [1]: 91.4%
- viability, T/C [2]: 91.6%
- viability, T/C [3]: 88.7%
- viability, T/C [4]: 85.9%
- viability, T/C [5]: 82.5%
- viability, T/C [6]: 66.7%
- viability, T/C [7]: 99.5%
- viability, T/C [8]: 87.1%
- viability, T/C [9]: 80.8%
- viability, T/C [10]: 94.8%
- viability, T/C [11]: 88.1%
- viability, T/C [12]: 66.8%
- viability, T/C [13]: 91.7%
- viability, T/C [14]: 88.8%
- viability, T/C [15]: 98.4%
- viability, T/C [16]: 93.2%
- viability, T/C [17]: 80%
- viability, T/C [18]: 68.1%
- viability, T/C [19]: 86%
- viability, T/C [20]: 94.7%
- viability, T/C [21]: 101%
- viability, T/C [22]: 94.9%
- viability, T/C [23]: 84%
- viability, T/C [24]: 64.1%
- viability, T/C [25]: 97.6%
- viability, T/C [26]: 87.9%
- viability, T/C [27]: 86.5%
- viability, T/C [28]: 104%
- viability, T/C [29]: 86.6%
- viability, T/C [30]: 70.8%
- viability, T/C [31]: 98.9%
- viability, T/C [32]: 79.9%
- viability, T/C [33]: 97.4%
- viability, T/C [34]: 82.2%
- viability, T/C [35]: 79.1%
- viability, T/C [36]: 65.1%
